# Experimental data published in publication PMC12884720, “Gabpα‐Pparγ Complex Determines Glycolytic Capacity and Lactic Acid Homeostasis in Brown Fat” (Advanced Science, 2025).
# Residues, ends and D or L forms follow the SMILES beside them. *: point of attachment. FITC = O=C1OC2(c3ccc(O)cc3Oc3cc(O)ccc32)c2ccc(NC(=S)*)cc21
# Experiments:
# BAT from wild‐type mice = experiment: Gene expression (mRNA, protein) in BAT of treated mice; type: in vivo, wild‐type C57BL/6J mice
# Procedure: Reverse transcription of cDNA was completed via the use of 1 µg of RNA with HiScript II Q RT SuperMix for real‐time quantitative PCR (qPCR) (Vazyme Biotech, Nanjing, China, Cat# R222) according to the provided protocols. qPCR was performed with a real‐time PCR system on a QuantStudio1 (Applied Biosystems) using Taq Pro Universal SYBR qPCR Master Mix (Vazyme Biotech., Nanjing, China, Cat# Q712‐02). Relative transcript levels were calculated via the comparative C T method; 36b4 was used as the internal control for cells, whereas Hprt was used as the internal control for tissues. The primer sequences are listed in Table S1 (Supporting Information). The mRNAs from the BAT of control and Gabpα ^Ucp1 KO mice were extracted and subjected to commercial RNA‐seq (BGI Genomics Co., Ltd.) for further DEG and KEGG pathway enrichment analysis. In detail, RNA quality was examined with Fragment (Agilent). High‐quality RNA (RIN > 8.0) was used to library construction. RNA‐seq was performed at BGI Genomics (China) using the Illumina NovaSeq 6000 platform. Clean reads were aligned to the mouse reference genome (GRCm39) using Bowtie2, and transcript quantification was performed with RSEM. […] The RNA‐seq data generated in this study have been deposited in the National Center for Biotechnology Information Sequence Read Archive database under accession code PRJNA1358056.
# Cells and tissues were lysed in RIPA lysis buffer (Beyotime, Shanghai, China, Cat# P0013B) containing a protease inhibitor cocktail (MedChem Express, NJ, USA, Cat# HY‐K0010) according to the manufacturer's protocol. Equal amounts of protein were separated on SDS‒PAGE gels and transferred to PVDF membranes (Millipore). The PVDF membranes were blocked in 5% skim milk for 1 h at room temperature and then incubated with primary antibody overnight at 4 °C. The membranes were washed three times with TBST and then incubated with HRP‐conjugated secondary antibodies for 1 h at room temperature. After washing three times, the Western blots were imaged via an enhanced chemiluminescence system.
# Gabpα‐Pparγ complex = experiment: SPR competitive binding assay, GPCBi on Gabpα and Pparγ interaction; conditions: equal concentration of Gabpα and different concentrations of GPCBi over immobilized Pparγ (Figure 4b)
# Procedure: SPR analysis was performed using a Biacore T200 system (Cytiva) equipped with a Series S Sensor Chip CM5. Briefly, the ligand Pparγ protein was immobilized to the CM5 Chip via covalent bonds to the amino acid residues in immobilization buffer. Subsequently, different concentrations of Gabpα were diluted in the analyte buffer and were injected into the flowing channel to allow interaction between Pparγ and Gabpα. For a competitive binding assay, an equal concentration of Gabpα and different concentrations of GPCBi were injected into the flowing channel to examine the effect of the interaction between Pparγ and Gabpα. The interacting phase included 120 s of the association phase and 200 s of the dissociation phase. The data were analyzed in a Biacore T200 Evaluation Software (Cytiva).
# [1] = system: differentiated iBAT‐SVF cells; experiment: Lactate levels in differentiated iBAT-SVF cells; type: cell-based, C57BL/6 mice; conditions: GPCBi 5 µM
# Procedure: Interscapular BAT‐SVF cells were obtained from eight‐week‐old male C57BL/6 mice. Briefly, BAT was excised, washed in PBS, minced, and digested at 37 °C for 40 min in Hanks solution containing type II collagenase (Sigma, Cat# C‐6885) and 4% bovine serum albumin (BSA). The tissue homogenates were filtered through a 70 µm cell strainer and centrifuged at 1000 rpm for 5 min. The cell pellet was resuspended in DMEM supplemented with 10% FBS (Sigma–Aldrich) and 1% penicillin/streptomycin (P/S) at 37 °C with 5% CO2. The next day, BAT‐SVF cells were immortalized with the SV40 large T antigen according to a published protocol.^[ [32] ^] For iBAT‐SVF cell differentiation, confluent SVF cells were induced to differentiate with medium containing 0.5 mM isobutylmethylxanthine (Sigma, Cat# I‐5879), 125 µM indomethacin (Sigma, Cat# I‐7378), 2 µg mL^−1 dexamethasone (Sigma, Cat# D‐1756), 5 µg mL^−1 insulin (Solarbio, Cat# I‐8040), 1 nM triiodo‐L‐thyronine (Sigma, Cat# T‐2877), and 1 µM rosiglitazone (Cayman, Cat# 71740‐100). After 48 h, the induction medium was replaced with a maintenance cocktail (5 µg mL^−1 insulin, 1 nM triiodo‐L‐thyronine, and 1 µM rosiglitazone) until 6 to 8 days after the induction of differentiation.
# Brown fat was homogenized with lysis buffer, ultrasonographically treated on ice at 300 W (on for 3 s, off for 7 s) for 2 min, and then centrifuged at 4 °C at 12 000 × g for 10 min. […] All protocols were followed in accordance with the manufacturer's guidelines.
# Eno1 promoter = experiment: Luciferase reporter assay, Eno1-Luc activated by Gabpα and Pparγ/Rxrα; type: cell-based, human; conditions: HEK293T cells, GPCBi 3 µM, n = 3 (Figure 4g)
# Procedure: HEK293T cells were transfected with 100 ng of Pparγ and 100 ng of Rxrα or empty vector together with 100 ng of Gabpα plasmid or the C‐terminal truncation mutants and 200 ng of Eno1 luciferase reporter plasmid in 24‐well plates via Lipofectamine reagent (Yeasen, Shanghai, China, Cat# 40802ES03). For the experiments with the peptides GPCBi or T0070907, the additional peptides GPCBi (3 µM) or T0070907 (10 µM) were added to the HEK293T cells one day after the plasmid complex was transfected. After 48 h of transfection, luciferase activity was measured via the Dual‐Luciferase Reporter Assay System (Vazyme Biotech., Nanjing, China; Cat# DL101‐01). Firefly luciferase reporter gene measurements were normalized to Renilla luciferase activity.
# Gabpα–Pparγ interaction = experiment: Co-IP of His-Gabpα and Myc-Pparγ with peptide GPCBi; type: binding; conditions: HEK293T cells cotransfected with His‐Gabpα and Myc‐Pparγ, GPCBi 30 µM, 48 h, anti‐His IP (Figure S4c)
smiles,measurement,setting,value
CC[C@H](C)[C@H](NC(=O)[C@H](CCCNC(=N)N)NC(=O)[C@H](CS)NC(=O)[C@H](CC(N)=O)NC(=O)[C@H](CC(C)C)NC(=O)[C@H](CC(=O)O)NC(=O)[C@H](CS)NC(=O)[C@H](CCCNC(=N)N)NC(=O)[C@H](CC(=O)O)NC(=O)[C@H](Cc1ccc(O)cc1)NC(=O)[C@@H](NC(=O)[C@H](CC(C)C)NC(=O)[C@H](CCCCN)NC(=O)[C@H](CC(C)C)NC(=O)[C@H](CCCNC(=N)N)NC(=O)[C@@H](NC(=O)[C@@H](NC(=O)[C@H](CCCNC(=N)N)NC(=O)[C@H](CCCNC(=N)N)NC(=O)[C@H](CCCNC(=N)N)NC(=O)[C@H](CCCNC(=N)N)NC(=O)[C@H](CCCNC(=N)N)NC(=O)[C@H](CCC(N)=O)NC(=O)[C@H](CCCNC(=N)N)NC(=O)[C@H](CCCNC(=N)N)NC(=O)[C@H](CCCCN)NC(=O)[C@H](CCCCN)NC(=O)[C@H](CCCNC(=N)N)NC(=O)CNC(=O)[C@H](Cc1ccc(O)cc1)NC(=S)Nc1ccc2c(c1)C(=O)OC21c2ccc(O)cc2Oc2cc(O)ccc21)[C@@H](C)O)[C@@H](C)CC)[C@@H](C)CC)C(=O)N[C@@H](Cc1c[nH]cn1)C(=O)N[C@@H](CCCCN)C(=O)N[C@@H](CCCCN)C(=O)N[C@@H](CO)C(=O)N[C@@H](CCCNC(=N)N)C(=O)N[C@@H](CC(N)=O)C(=O)N[C@@H](CCCCN)C(=O)O [GPCBi] ({FITC}-YGRKKRRQRRRRRTIRLKLIYDRCDLNCRIHKKSRNK-OH; N-terminus and C-terminus assumed),Ldh and Ucp1 expression in BAT,"BAT from wild‐type mice; GPCBi 5.5 mg kg^−1 in BAT, 23 °C for 7 days then 10 °C for 2 days, mRNA n = 4 (Figure 5e,f)",effectively downregulated
same,"gene expressions of Eno1, Pkm2, and Ucp1 in BAT","BAT from wild‐type mice; GPCBi 5.5 mg kg^−1 orthotopically into BAT, 7 days, control n = 3, GPCBi n = 4 (Figure 4l,m)",decreased
same,"regulatory gene expression of the futile lipid cycle, BAT","BAT from wild‐type mice; GPCBi in BAT, 23 °C for 7 days to 10 °C for 2 days, control n = 4, GPCBi n = 3 (Figure S5a)",substantially impaired
same,effect on Gabpα affinity toward Pparγ,Gabpα‐Pparγ complex,dose‐dependently attenuated this interaction
same,intracellular lactate levels in brown adipocytes,[1]; first 2 days of adipogenic differentiation (Figure 5l),decreased
same,lactate level in GPCBi‐treated brown adipocytes,"[1]; first 2 days of adipogenic differentiation, versus scramble peptide, without Enoblock (Figure 5o)",reduced
same,Gabpα‐Pparγ complex‐mediated activation of the Eno1 promoter,Eno1 promoter,suppressed
same,binding capacity between Gabpα and Pparγ,Gabpα–Pparγ interaction,decreased
